Measurements reported in patent US20240050463A1, “THERAPEUTIC COMPOSITIONS AND METHODS FOR TREATING HEPATITIS B” (ARBUTUS BIOPHARMA CORPORATION, priority 2016, published 2024).

Legend:
[1] = tested on: HBV rcDNA in AML12-HBV10 cells; experiment: Inhibition of rcDNA in AML12-HBV10 cells (bDNA assay), checkerboard, MacSynergy II; format: cell-based, HBV (mouse hepatocyte cell line); conditions: Hepatitis B virus, AML12HBV10, in Mus musculus, expected from additive interaction; Compound 3 0.3125 μM; ETV μM in c0 of the row
Procedure: The two inhibitors were tested both singly as well as in combinations in a checkerboard fashion such that each concentration of inhibitor A was combined with each concentration of inhibitor B to determine their combination effects on inhibition of rcDNA production.

[2] = tested on: D type HBV in primary human hepatocytes (PHH); experiment: HBV DNA in culture supernatants of HBV-infected primary human hepatocytes (qPCR), MacSynergy; format: cell-based; conditions: COMPOUND 25 0.00 nM
Procedure: The mouse liver perfusion was applied to isolate PHHs. The isolated hepatocytes were further purified by Percoll. The cells were resuspended with culture media and seeded into the 96-well plates (6×10^4 cell/well) or 48-well plates (1.2×10^5 cell/well). The PHHs were infected with a D type HBV one day post seeding (day 1).
On day 2, the test compounds were diluted and added into the cell culture plates. The culture media containing the compounds were refreshed every other day. The cell culture supernatants were collected on day 8 for the HBV DNA and antigen determinations.
The compounds were tested at 7 concentrations, 3-fold dilution, in triplicate.
Two compounds were tested at 5×5 matrix, in triplicate plates.
DNA in the culture supernatants harvested on days 8 were isolated with QIAamp 96 DNA Blood Kit (Qiagen-51161). For each sample, 100 μl of the culture supernatants was used to extract DNA. The DNA was eluted with 100 μl, 150 μl or 180 μl of AE. HBV DNA in the culture supernatants was quantified by qPCR. The combination effect was analyzed by the MacSynergy software. The primers are described below.

hepatitis B virus (HBV) = experiment: Serum HBsAg in humanized liver chimeric mouse model of chronic HBV infection (GS HBsAg EIA 3.0); format: in vivo; conditions: Compound 3 oral 100 mg/kg twice daily, SIRNA-NP intravenous 3 mg/kg every 2 weeks, ETV oral 1.2 μg/kg daily, pegIFN α-2a subcutaneous 30 μg/kg twice a week
Procedure: This work was conducted in a well-established humanized liver chimeric mouse model of chronic hepatitis B virus (HBV) infection (Tsuge et al., Hepatology, 42(5), 1046-54 (2005)). A persistent level of HBV infection was established in the animals prior to the treatment phase which started at Day 0.
The anti-HBV effects were assessed based on serum HBsAg levels using the GS HBsAg EIA 3.0 enzyme linked immunosorbent assay kit from Bio-Rad Laboratories as per manufacturer instructions; and serum HBV DNA levels measured from total extracted DNA using a quantitative PCR assay (primer/probe sequences from Tanaka et al., Journal of Medical Virology, 72, 223-229 (2004)).

SMILES	inhibition at 0.3125 µM [1] [%]	AVERAGE % INHIBITION, HBV DNA ([2]; COMPOUND 3 61.73 nM) [%]	AVERAGE % INHIBITION, HBV DNA ([2]; COMPOUND 3 185.19 nM) [%]	AVERAGE % INHIBITION, HBV DNA ([2]; COMPOUND 3 555.56 nM) [%]	AVERAGE % INHIBITION, HBV DNA ([2]; COMPOUND 3 1666.67 nM) [%]	AVERAGE % INHIBITION, HBV DNA ([2]; COMPOUND 3 5000.00 nM) [%]	Serum HBsAg (± SEM) (hepatitis B virus (HBV); Day 0 (start of treatment)) [IU/mL]	Serum HBsAg (± SEM) (hepatitis B virus (HBV); Day 21) [IU/mL]
CC[C@@H](C)NS(=O)(=O)c1ccc(F)c(C(=O)Nc2ccc(F)c(F)c2)c1 [Compound 3]	71	−28.13	−25.93	−3.32	25.94	74.78		
C=C1[C@H](CO)[C@@H](O)C[C@@H]1n1cnc2c(=O)[nH]c(N)nc21 [ETV, Entecavir]							2649 ± 282	2975 ± 629
